Holding throughout (assay type): in vivo
What all share (details): 250 g/ha, evaluated after 13 days, five-point scale

Assay [1] relates to Setaria faberi (SETFA). Briefly: Pre-emergence herbicide glasshouse test. Summed up:
(§1)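 Pots were sprayed one day after sowing (pre-emergence) or after 8 days' growth (post-emergence) at 250 g/ha unless otherwise stated, in acetone/water 50:50 with 0.5% Tween 20. Plants were grown at 24/16 °C with 14 h light and 65% humidity. Damage was scored at 13 days on a five-point scale (5=81-100% to 1=0-20%).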

Assay [2] has as its system Echinochloa crus-galli (ECHCG). Kind of assay: Pre-emergence herbicide glasshouse test. Summed up:
as §1

In assay [3] the test system is Amaranthus palmeri (AMAPA). Kind of assay: Pre-emergence herbicide glasshouse test. An outline of the steps: as §1
Assay [4] relates to Amaranthus retoflexus (AMARE). Kind of assay: Pre-emergence herbicide glasshouse test. Summed up:
as §1

The subject of assay [5] is Ipomoea hederacea (IPOHE). Kind of assay: Pre-emergence herbicide glasshouse test. Summed up: as §1
Assay [6] deals with Setaria faberi (SETFA). Kind of assay: Post-emergence herbicide glasshouse test. Summed up: as §1
Assay [7] has as its system Echinochloa crus-galli (ECHCG). Kind of assay: Post-emergence herbicide glasshouse test. An outline of the steps: as §1
For assay [8], the system named is Amaranthus palmeri (AMAPA). Briefly: Post-emergence herbicide glasshouse test. Summed up:
as §1

The subject of assay [9] is Amaranthus retoflexus (AMARE). Kind of assay: Post-emergence herbicide glasshouse test. An outline of the steps:
as §1

Assay [10] relates to Ipomoea hederacea (IPOHE). Kind of assay: Post-emergence herbicide glasshouse test. An outline of the steps: as §1

SMILES strings stand for the structures.

On to `O=C(c1ccccn1)c1nc(C(F)(F)F)nc2cccc(Oc3ncc(Cl)cn3)c12` [Compound 1.029, [5-(5-chloropyrimidin-2-yl)oxy-2-(trifluoromethyl)quinazolin-4-yl]-(2-pyridyl) methanone], for which the “percentage damage caused to the plant, SETFA” value in [1] and in [6] was 1 (1=0-20%) each time. The “percentage damage caused to the plant, ECHCG” value in assay [2] and in [7] was 1 (1=0-20%) throughout. The “percentage damage caused to the plant, AMAPA” value in [3] and in assay [8] was 1 (1=0-20%) throughout. Besides, the “percentage damage caused to the plant, AMARE” value in assay [4] and in [9] was 1 (1=0-20%) each time. Moreover, the “percentage damage caused to the plant, IPOHE” value in assay [5] and in assay [10] was 1 (1=0-20%) throughout.
With `O=C(c1cccnc1)c1nc(C(F)(F)F)nc2cccc(Oc3ncc(Cl)cn3)c12` [Compound 1.030], the “percentage damage caused to the plant, SETFA” value in [1] is given as 4 (4=61-80%); in [6], 2 (2=21-40%). Moreover, the “percentage damage caused to the plant, ECHCG” value in assay [2] is on record as 4 (4=61-80%); in [7] it was 2 (2=21-40%). In addition, the “percentage damage caused to the plant, AMAPA” value in assay [3] and in assay [8] was 5 (5=81-100%) each time. Besides, the “percentage damage caused to the plant, AMARE” value in assay [4] and in assay [9] was 5 (5=81-100%) each time. Further, the “percentage damage caused to the plant, IPOHE” value in assay [5] was 1 (1=0-20%); in assay [10], 2 (2=21-40%).
For the molecule `FC(F)(F)c1nc(CCC2CCOC2)c2c(Oc3ncc(Cl)cn3)cccc2n1` (centres unmarked) [Compound 1.031], the “percentage damage caused to the plant, SETFA” value in assay [1] and in [6] was 5 (5=81-100%) in each case. Moreover, the “percentage damage caused to the plant, ECHCG” value in [2] and in assay [7] was 5 (5=81-100%) throughout. Also, the entries for the “percentage damage caused to the plant, AMAPA” value in assay [3] and in [8] were 5 (5=81-100%) and 4 (4=61-80%), respectively. For the same molecule, the “percentage damage caused to the plant, AMARE” value in assay [4] and in [9] was 5 (5=81-100%) in each case. Also, the “percentage damage caused to the plant, IPOHE” value in [5] and in assay [10] was 5 (5=81-100%) throughout.
On to `FC(F)(F)c1nc(CCC2CC2)c2c(Oc3ncc(Cl)cn3)cccc2n1` [Compound 1.032], for which the “percentage damage caused to the plant, SETFA” value in assay [1] and in assay [6] was 5 (5=81-100%) throughout. Besides, the “percentage damage caused to the plant, ECHCG” value in assay [2] and in [7] was 5 (5=81-100%) in each case. In addition, the “percentage damage caused to the plant, AMAPA” value in assay [3] is listed as 5 (5=81-100%); in assay [8] it was 4 (4=61-80%). In addition, the “percentage damage caused to the plant, AMARE” value in [4] and in assay [9] was 5 (5=81-100%) each time. Further, the “percentage damage caused to the plant, IPOHE” value is given as 1 (1=0-20%) in [5] and 4 (4=61-80%) in assay [10].
For the molecule `FC(F)(F)c1nc(CCC2COC2)c2c(Oc3ncc(Cl)cn3)cccc2n1` [Compound 1.033], the “percentage damage caused to the plant, SETFA” value in assay [1] and in [6] was 5 (5=81-100%) in each case. In addition, the “percentage damage caused to the plant, ECHCG” value in assay [2] and in assay [7] was 5 (5=81-100%) each time. For the same molecule, the “percentage damage caused to the plant, AMAPA” value is recorded as 5 (5=81-100%) in assay [3] and 2 (2=21-40%) in assay [8]. In addition, the “percentage damage caused to the plant, AMARE” value in assay [4] and in assay [9] was 4 (4=61-80%) each time. Besides, the “percentage damage caused to the plant, IPOHE” value in assay [5] and in [10] was 5 (5=81-100%) throughout.
